The test system of data set [1] is Mus musculus. Nature of the data set: Antinociceptive activity in Swiss mouse assessed as inhibition of capsaicin-induced nociception at 100 mg/kg, po administered 1 hr followed by capsaicin challenge measured for 5 mins relative to vehicle-treated control. In kind it is functional.
Data set [2] relates to Mus musculus. Nature of the data set: Antinociceptive activity in Swiss mouse assessed as inhibition of CFA-induced mechanical allodynia at 100 mg/kg, po after 2 hrs relative to vehicle-treated control. The data set is classed as functional.
Data set [3] relates to Mus musculus. The data set can be described thus: Antinociceptive activity in Swiss mouse assessed as inhibition of CFA-induced mechanical allodynia at 100 mg/kg, po measured over 4 hrs. In kind it is functional, organism-based.
The subject of data set [4] is Mus musculus. The data set can be described thus: Antinociceptive activity in po dosed Swiss mouse assessed as inhibition of CFA-induced mechanical allodynia after 2 hrs. The data set is classed as functional. Particulars: read-out: ID50 (the source's name).
The test system of data set [5] is Mus musculus. The data set can be described thus: Antinociceptive activity in Swiss mouse assessed as inhibition of CFA-induced mechanical allodynia at 300 mg/kg, po after 2 hrs relative to vehicle-treated control. The data set is classed as functional.
The subject of data set [6] is Mus musculus. Nature of the data set: Antinociceptive activity in Swiss mouse assessed as inhibition of CFA-induced mechanical allodynia at 100 mg/kg, po measured over 6 hrs. In kind it is functional, organism-based.
Data set [7] concerns Mus musculus. The data set can be described thus: Toxicity in Swiss mouse assessed as effect on spontaneous locomotor activity at 100 mg/kg, po after 1 hr by open field test. The note with it: in vivo. In kind it is organism-based.
Data set [8] relates to Mus musculus. The data set can be described thus: Toxicity in Swiss mouse assessed as effect on forced locomotor activity at 100 mg/kg, po after 1 hr by rotarod test. In kind it is organism-based. Particulars: in vivo.

Each structure is given as a SMILES string. Calls of active or inactive are those of the source. No cut-off for these calls is given here.

`FC(F)(F)c1nc(-c2ccccc2)nc2c1C1(CCCC1)Oc1ccccc1-2`: the inhibition result with Mus musculus [1] is “Active”.
On the same count and under the same terms, for `FC(F)(F)c1nc(-n2cccc2)nc2c1C1(CCCC1)Oc1ccccc1-2` the value was “Active”.
Regarding `CC(C(=O)O)c1cccc(C(=O)c2ccccc2)c1` (stereo not given) [KETOPROFEN], the inhibition in vivo (in general, the relative decrease from the control value, in per cent) at 100 mg/kg was 80% in the data set on Mus musculus [1] (Mus musculus, Swiss, po) and ≤ 65% with Mus musculus [2]. Besides, in the data set on Mus musculus [3], the inhibition entry is “Active”. In the data set with Mus musculus [4], the ED50 was found to be 169 mg/kg. For the same compound, the Imax in the data set with Mus musculus [5] was 75%.
As to `FC(F)(F)c1nc(-n2cccc2)nc2c1C1(CCCCCC1)Oc1ccccc1-2`, the inhibition result in the data set with Mus musculus [1] is “Active”.
The same measure, in the same setting: for `Nc1nc2c(c(C(F)(F)F)n1)C1(CCCCC1)Oc1ccccc1-2` the value was “Active”.
`Nc1nc2c(c(C(F)(F)F)n1)C1(CCCC1)Oc1ccccc1-2`: the inhibition entry in the data set with Mus musculus [1] is “Active”.
On the same count and under the same terms, the value for `FC(F)(F)c1nc(-c2ccccc2)nc2c1C1(CCCCCC1)Oc1ccccc1-2` was “Active”.
With `FC(F)(F)c1nc(-n2cccc2)nc2c1C1(CCCCC1)Oc1ccccc1-2`, the Imax is listed as 83% in the data set on Mus musculus [1] and 66% in the data set with Mus musculus [5]. For the same compound, the inhibition in vivo at 100 mg/kg with Mus musculus [2] is ≤ 68%. The inhibition result in the data set with Mus musculus [6] is “Active”. For the same compound, in the data set on Mus musculus [4], the ED50 was found to be 422 mg/kg. Moreover, the Activity entry in the data set on Mus musculus [7] and with Mus musculus [8] was “Non-Toxic” in each case.
As to `Nc1nc2c(c(C(F)(F)F)n1)C1(CCCCCC1)Oc1ccccc1-2`, the inhibition result in the data set with Mus musculus [1] is “Active”.
The same measure, in the same setting: for `FC(F)(F)c1nc(-c2ccccc2)nc2c1C1(CCCCC1)Oc1ccccc1-2` the value was “Active”.
